Earlier results, collected in patent US20030228635A1, “Cell proliferation assays and methods” (Renovar, Inc., priority 2002, published 2003).

Test system: cells
Settings: cells labelled with CFSE; Lyons and Parish 1994

## carboxy-fluorescein diacetate, succinimidyl ester [CFSE]
  effect on cellular function: does not adversely affect cellular function
